Results from US10821115B2, “Compounds that inhibit Mcl-1 protein” (priority 2017, dated 2020).

Assays:
[1] = test system: human multiple myeloma cell line, OPM-2; experiment: Cell viability assay (OPM-2 10 FBS), CellTiter-Glo; assay type: cell-based; settings: Homo sapiens, OPM-2, 16 h, read-out: OPM-2 10% FBS IC50 IP, OPM-2 cells, 10% FBS, 16 h, CellTiter-Glo
Method in brief: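 3000 cells/well, RPMI 1640 + 10% FBS; serial compound dilutions, 16 h, 37 °C/5% CO2.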

[2] = molecular target: recombinant human Mcl-1 (residues 171-327) / Bim interaction (Homo sapiens (Human), UniProt Q07820); experiment: biochemical; assay type: binding; settings: TR-FRET, Mcl-1(171-327) / biotin-Bim (51-76); read-out: Mcl-1 HTRF IC50
recombinant human Mcl-1 (residues 171-327) / Bim interaction, sequence (Q07820 171-327): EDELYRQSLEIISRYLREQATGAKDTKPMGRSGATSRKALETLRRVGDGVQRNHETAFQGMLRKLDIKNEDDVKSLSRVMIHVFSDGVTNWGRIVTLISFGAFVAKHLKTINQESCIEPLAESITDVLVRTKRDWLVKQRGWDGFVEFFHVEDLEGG

## C#C[C@]1(OCCN2CCOCC2)/C=C/C[C@H](C)[C@@H](C)S(=O)(=O)NC(=O)c2ccc3c(c2)N(C[C@@H]2CC[C@H]21)C[C@@]1(CCCc2cc(Cl)ccc21)CO3 [Example 100504, (1S,3′R,6′R,7′S,8′E,11′S,12′R)-6-chloro-7′-ethynyl-11′,12′-dimethyl-7′-(2-(4-morpholinyl)ethoxy)-3,4-dihydro-2H,15′H-spiro[naphthalene-1,22′-[20]oxa[13]thia[1,14]diazatetracyclo [14.7.2.0~3,6~.0~19,24~]pentacosa[8,16,18,24]tetraen]-15′-one 13′,13′-dioxide]
[1]
  IC50: 1890 nM
[2]
  IC50: 0.803 nM

## C#C[C@@]1(OCCN2CCOCC2)/C=C/C[C@H](C)[C@@H](C)S(=O)(=O)NC(=O)c2ccc3c(c2)N(C[C@@H]2CC[C@H]21)C[C@@]1(CCCc2cc(Cl)ccc21)CO3 [Example 100505, (1S,3′R,6′R,7′R,8′E,11′S,12′R)-6-chloro-7′-ethynyl-11′,12′-dimethyl-7′-(2-(4-morpholinyl)ethoxy)-3,4-dihydro-2H,15′H-spiro[naphthalene-1,22′-[20]oxa[13]thia[1,14]diazatetracyclo [14.7.2.0~3,6~.0~19,24~]pentacosa[8,16,18,24]tetraen]-15′-one 13′,13′-dioxide]
[1]
  IC50: 137 nM
[2]
  IC50: 0.165 nM

## CO[C@@]1(C#CCCN2CCOC[C@@H]2C)/C=C/C[C@H](C)[C@@H](C)S(=O)(=O)NC(=O)c2ccc3c(c2)N(C[C@@H]2CC[C@H]21)C[C@@]1(CCCc2cc(Cl)ccc21)CO3 [Example 100506, (1S,3′R,6′R,7′S,8′E,11′S,12′R)-6-chloro-7′-methoxy-11′,12′-dimethyl-7′-(4-((3S)-3-methyl-4-morpholinyl)-1-butyn-1-yl)-3,4-dihydro-2H,15′H-spiro[naphthalene-1,22′-[20]oxa[13]thia[1,14]diazatetracyclo [14.7.2.0~3,6~.0~19,24~]pentacosa[8,16,18,24]tetraen]-15′-one 13′,13′-dioxide]
[1]
  IC50: 1270 nM
[2]
  IC50: 0.497 nM

## CO[C@@]1(Cc2ncco2)/C=C/C[C@H](C)[C@@H](C)S(=O)(=O)NC(=O)c2ccc3c(c2)N(C[C@@H]2CC[C@H]21)C[C@@]1(CCCc2cc(Cl)ccc21)CO3 [Example 100508, (1S,3′R,6′R,7′S,8′E,11′S,12′R)-6-chloro-7′-methoxy-11′,12′-dimethyl-7′-(1,3-oxazol-2-ylmethyl)-3,4-dihydro-2H,15′H-spiro[naphthalene-1,22′-[20]oxa[13]thia[1,14]diazatetracyclo [14.7.2.0~3,6~.0~19,24~]pentacosa[8,16,18,24]tetraen]-15′-one 13′,13′-dioxide]
[1]
  IC50: 2500 nM
[2]
  IC50: 2.73 nM

## CO[C@@]1(CC(=O)NCCCl)/C=C/C[C@H](C)[C@@H](C)S(=O)(=O)NC(=O)c2ccc3c(c2)N(C[C@@H]2CC[C@H]21)C[C@@]1(CCCc2cc(Cl)ccc21)CO3 [Example 100509, N-(2-chloroethyl)-2-((1S,3′R,6′R,7′S,8′E,11′S,12′R)-6-chloro-7′-methoxy-11′,12′-dimethyl-13′,13′-dioxido-15′-oxo-3,4-dihydro-2H-spiro[naphthalene-1,22′-[20]oxa[13]thia[1,14]diazatetracyclo [14.7.2.0~3,6~.0~19,24~]pentacosa[8,16,18,24]tetraen]-7′-yl)acetamide]
[1]
  IC50: 361 nM
[2]
  IC50: 0.057 nM

## CO[C@@]1(Cc2nnc(C)o2)/C=C/C[C@H](C)[C@@H](C)S(=O)(=O)NC(=O)c2ccc3c(c2)N(C[C@@H]2CC[C@H]21)C[C@@]1(CCCc2cc(Cl)ccc21)CO3 [Example 100512, (1S,3′R,6′R,7′S,8′E,11′S,12′R)-6-chloro-7′-methoxy-11′,12′-dimethyl-7′-((5-methyl-1,3,4-oxadiazol-2-yl)methyl)-3,4-dihydro-2H,15′H-spiro[naphthalene-1,22′-[20]oxa[13]thia[1,14]diazatetracyclo [14.7.2.0~3,6~.0~19,24~]pentacosa[8,16,18,24]tetraen]-15′-one 13′,13′-dioxide]
[1]
  IC50: 1490 nM
[2]
  IC50: 0.415 nM

## COCC[C@@H]1[C@@H](C)C/C=C/[C@@](O)(C2SCCCS2)[C@@H]2CC[C@H]2CN2C[C@@]3(CCCc4cc(Cl)ccc43)COc3ccc(cc32)C(=O)NS1(=O)=O [Example 100513, (1S,3′R,6′R,7′S,8′E,11′S,12′R)-6-chloro-7′-(1,3-dithian-2-yl)-7′-hydroxy-12′-(2-methoxyethyl)-11′-methyl-3,4-dihydro-2H,15′H-spiro[naphthalene-1,22′-[20]oxa[13]thia[1,14]diazatetracyclo [14.7.2.0~3,6~.0~19,24~]pentacosa[8,16,18,24]tetraen]-15′-one 13′,13′-dioxide]
[1]
  IC50: 288 nM
[2]
  IC50: 0.071 nM

## COCC[C@@H]1[C@@H](C)C/C=C/[C@](OC)(C2SCCCS2)[C@@H]2CC[C@H]2CN2C[C@@]3(CCCc4cc(Cl)ccc43)COc3ccc(cc32)C(=O)NS1(=O)=O [Example 100515, (1S,3′R,6′R,7′R,8′E,11′S,12′R)-6-chloro-7′-(1,3-dithian-2-yl)-7′-methoxy-12′-(2-methoxyethyl)-11′-methyl-3,4-dihydro-2H,15′H-spiro[naphthalene-1,22′-[20]oxa[13]thia[1,14]diazatetracyclo [14.7.2.0~3,6~.0~19,24~]pentacosa[8,16,18,24]tetraen]-15′-one 13′,13′-dioxide]
[1]
  IC50: 585 nM
[2]
  IC50: 0.132 nM

## Cc1nc([C@]2(O)/C=C/C[C@H](C)[C@@H](C)S(=O)(=O)NC(=O)c3ccc4c(c3)N(C[C@@H]3CC[C@H]32)C[C@@]2(CCCc3cc(Cl)ccc32)CO4)cs1 [Example 100516, (1S,3′R,6′R,7′S,8′E,11′S,12′R)-6-chloro-7′-hydroxy-11′,12′-dimethyl-7′-(2-methyl-1,3-thiazol-4-yl)-3,4-dihydro-2H,15′H-spiro[naphthalene-1,22′-[20]oxa[13]thia[1,14]diazatetracyclo [14.7.2.0~3,6~.0~19,24~]pentacosa[8,16,18,24]tetraen]-15′-one 13′,13′-dioxide]
[1]
  IC50: 1900 nM
[2]
  IC50: 3.36 nM

## CO[C@@]1(c2csc(C)n2)/C=C/C[C@H](C)[C@@H](C)S(=O)(=O)NC(=O)c2ccc3c(c2)N(C[C@@H]2CC[C@H]21)C[C@@]1(CCCc2cc(Cl)ccc21)CO3 [Example 100517, (1S,3′R,6′R,7′S,8′E,11′S,12′R)-6-chloro-7′-methoxy-11′,12′-dimethyl-7′-(2-methyl-1,3-thiazol-4-yl)-3,4-dihydro-2H,15′H-spiro[naphthalene-1,22′-[20]oxa[13]thia[1,14]diazatetracyclo [14.7.2.0~3,6~.0~19,24~]pentacosa[8,16,18,24]tetraen]-15′-one 13′,13′-dioxide]
[1]
  IC50: 3460 nM
[2]
  IC50: 1.06 nM

## CO[C@@]1(C#CCN2CCN3CCOC[C@@H]3C2)/C=C/C[C@H](C)[C@@H](C)S(=O)(=O)NC(=O)c2ccc3c(c2)N(C[C@@H]2CC[C@H]21)C[C@@]1(CCCc2cc(Cl)ccc21)CO3 [Example 100518, (1S,3′R,6′R,7′S,8′E,11′S,12′R)-6-chloro-7′-(3-((9aS)-hexahydropyrazino[2,1-c][1,4]oxazin-8(1H)-yl)-1-propyn-1-yl)-7′-methoxy-11′,12′-dimethyl-3,4-dihydro-2H,15′H-spiro[naphthalene-1,22′-[20]oxa[13]thia[1,14]diazatetracyclo [14.7.2.0~3,6~.0~19,24~]pentacosa[8,16,18,24]tetraen]-15′-one 13′,13′-dioxide]
[1]
  IC50: 668 nM
[2]
  IC50: 0.427 nM

## COCC[C@@H]1[C@@H](C)C/C=C/[C@](C=O)(OC)[C@@H]2CC[C@H]2CN2C[C@@]3(CCCc4cc(Cl)ccc43)COc3ccc(cc32)C(=O)NS1(=O)=O [Example 100520, (1S,3′R,6′R,7′S,8′E,11′S,12′R)-6-chloro-7′-methoxy-12′-(2-methoxyethyl)-11′-methyl-15′-oxo-3,4-dihydro-2H-spiro[naphthalene-1,22′-[20]oxa[13]thia[1,14]diazatetracyclo [14.7.2.0~3,6~.0~19,24~]pentacosa[8,16,18,24]tetraene]-7′-carbaldehyde 13′,13′-dioxide]
[1]
  IC50: 1690 nM
[2]
  IC50: 0.549 nM

## CO[C@@]1(Cc2nccs2)/C=C/C[C@H](C)[C@@H](C)S(=O)(=O)NC(=O)c2ccc3c(c2)N(C[C@@H]2CC[C@H]21)C[C@@]1(CCCc2cc(Cl)ccc21)CO3 [Example 100525, (1S,3′R,6′R,7′S,8′E,11′S,12′R)-6-chloro-7′-methoxy-11′,12′-dimethyl-7′-(1,3-thiazol-2-ylmethyl)-3,4-dihydro-2H,15′H-spiro[naphthalene-1,22′-[20]oxa[13]thia[1,14]diazatetracyclo [14.7.2.0~3,6~.0~19,24~]pentacosa[8,16,18,24]tetraen]-15′-one 13′,13′-dioxide]
[1]
  IC50: 1430 nM
[2]
  IC50: 3.31 nM

## Cc1nccnc1C[C@@]1(O)/C=C/C[C@H](C)[C@@H](C)S(=O)(=O)NC(=O)c2ccc3c(c2)N(C[C@@H]2CC[C@H]21)C[C@@]1(CCCc2cc(Cl)ccc21)CO3 [Example 100526, (1S,3′R,6′R,7′R,8′E,11′S,12′R)-6-chloro-7′-hydroxy-11′,12′-dimethyl-7′-((3-methyl-2-pyrazinyl)methyl)-3,4-dihydro-2H,15′H-spiro[naphthalene-1,22′-[20]oxa[13]thia[1,14]diazatetracyclo [14.7.2.0~3,6~.0~19,24~]pentacosa[8,16,18,24]tetraen]-15′-one 13′,13′-dioxide]
[1]
  IC50: 826 nM
[2]
  IC50: 0.387 nM

## CO[C@@]1(Cc2nc(C)co2)/C=C/C[C@H](C)[C@@H](C)S(=O)(=O)NC(=O)c2ccc3c(c2)N(C[C@@H]2CC[C@H]21)C[C@@]1(CCCc2cc(Cl)ccc21)CO3 [Example 100527, (1S,3′R,6′R,7′S,8′E,11′S,12′R)-6-chloro-7′-methoxy-11′,12′-dimethyl-7′-((4-methyl-1,3-oxazol-2-yl)methyl)-3,4-dihydro-2H,15′H-spiro[naphthalene-1,22′-[20]oxa[13]thia[1,14]diazatetracyclo [14.7.2.0~3,6~.0~19,24~]pentacosa[8,16,18,24]tetraen]-15′-one 13′,13′-dioxide]
[1]
  IC50: 3570 nM
[2]
  IC50: 3.6 nM
